Source: patent US6087364A, “Dopamine D4 receptor antagonists” (Warner-Lambert Company, priority 1998, dated 2000)
pKi: −log10 of the molar value. Read-outs that look alike come from different tables or passages of the source.

Experiments:
[1] = molecular target: T1, human recombinant dopamine D4.2 receptor (Homo sapiens, UniProt P21917, DEL265-296); experiment: D4.2 dopamine receptor binding assay ([3H]spiperone, membranes of CHO K1 cells); details: human D4.2 receptor, 0.2 nM [3H]spiperone, 60 min, 25° C., apparent Ki from IC50 (Cheng and Prusoff)
T1 construct: expressed in transfected cells
T1 sequence (P21917 with tags, fused parts or gaps DEL265-296): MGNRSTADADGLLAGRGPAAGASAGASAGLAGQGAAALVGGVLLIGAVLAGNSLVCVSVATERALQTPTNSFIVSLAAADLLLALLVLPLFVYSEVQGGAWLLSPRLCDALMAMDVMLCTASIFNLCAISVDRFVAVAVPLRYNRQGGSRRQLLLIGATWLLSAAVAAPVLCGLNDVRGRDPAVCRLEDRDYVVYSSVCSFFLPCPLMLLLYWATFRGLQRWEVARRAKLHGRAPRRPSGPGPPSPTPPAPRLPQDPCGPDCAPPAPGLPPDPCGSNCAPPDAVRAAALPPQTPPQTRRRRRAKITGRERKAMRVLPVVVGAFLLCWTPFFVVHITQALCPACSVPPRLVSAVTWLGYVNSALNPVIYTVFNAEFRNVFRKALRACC
Description: (§1) A cell line expressing human dopamine D2 (Long form) receptors was purchased from Oregon Health Sciences University, Portland, Oreg. The D2 receptor cDNA was subcloned into an expression vector, pRc/CMV. The plasmids were transfected by electroporation into CHO K1 cells. A single stable transfectant, resistant to the antibiotic G418, was isolated and selected for use in the binding studies. For D4 binding, CHO K1 cells stably transfected to express the human recombinant dopamine D4.2 receptor subtype, as described by Shih, et al., "The Expression and Functional Characterization of Human Dopamine D4.2 Receptor in CHO K1 Cells," Soc. Neurosci., 21(Part 1): 621 (1995).
(§2) CHO K1 cells expressing either human D2 and D4.2 receptors were grown in 162 cm^2 culture flasks in F12 medium (Gibco Laboratories, Grand Island, N.Y.) supplemented with 10% fetal bovine serum (FBS, Hyclone, Logan, Utah) in an atmosphere of 5% CO2 /95% air at 37° C. Cells were grown until confluent, after which growth medium was removed and replaced with 0.02% ethylene diamine tetracetate (EDTA) in a phosphate-buffered saline solution (Sigma Chemical Co., St. Louis, Mo.) and scraped from the flasks. The cells were centrifuged at about 1000× g for 10 minutes at […] and then resuspended in TEM buffer (25 mM Tris-HCl, pH 7.4, 5 mM EDTA, and 6 mM MgCl2) for D2 or the D4.2 buffer (50 mM Tris-HCl, pH 7.4, 5 mM EDTA, 1.5 mM CaCl2, 5 mM KC1, and 120 mM NaCl) and homogenized. The membranes were pelleted by centrifugation at 20,000× g at […] for 20 minutes. Then the pellets were resuspended in appropriate buffer at 1 mL/flask and stored at -70° C. until used in the receptor binding assay.
(§3) After 60 minutes incubation at 25° C., the incubations were terminated by rapid filtration through Whatmann GF/B glass fibre filters (soaked for 1 hour in 0.5% polyethylenimine) on a cell harvester, with three washes of 1 mL ice-cold buffer. Individual filter disks containing the bound ligand were placed in counting vials with 4 mL of scintillation fluid (Ready Gel, Beckman Instrument Inc., Fullerton, Calif.) and then counted in a Beckman LS-6800 liquid scintillation counter at an efficiency of 45%. Nonspecific binding was defined in presence of 1 mM of haloperidol.
(§4) Saturation and competition binding data were analyzed using an iterative nonlinear least-square curve-fitting Ligand program. […] Experimental compounds were made up as stock solutions in dimethyl sulfoxide (DMSO). […] Each observation was carried out in triplicate. To allow these calculations, Kd values were measured for the interaction of various ligands with the receptor.

[2] = molecular target: human dopamine D2 (Long form) receptor (Homo sapiens, UniProt P14416); experiment: D2 dopamine receptor binding assay ([3H]spiperone, membranes of CHO K1 cells)
Chain of human dopamine D2 (Long form) receptor (P14416 whole entry): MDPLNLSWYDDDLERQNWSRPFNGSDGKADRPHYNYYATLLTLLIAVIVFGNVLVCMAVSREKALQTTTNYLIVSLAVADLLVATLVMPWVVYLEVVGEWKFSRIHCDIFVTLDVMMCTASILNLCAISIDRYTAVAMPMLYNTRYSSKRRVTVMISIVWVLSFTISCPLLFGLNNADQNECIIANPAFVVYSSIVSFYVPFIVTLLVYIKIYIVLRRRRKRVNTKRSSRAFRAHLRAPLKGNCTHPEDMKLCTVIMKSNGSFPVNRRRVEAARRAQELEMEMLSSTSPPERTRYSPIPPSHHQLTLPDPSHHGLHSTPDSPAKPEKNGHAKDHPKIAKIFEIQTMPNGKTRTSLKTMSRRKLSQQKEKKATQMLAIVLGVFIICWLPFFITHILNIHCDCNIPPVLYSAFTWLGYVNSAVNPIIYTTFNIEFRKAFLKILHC
Description: as §1, §2, §3, §4

[3] = tested on: amphetamine-stimulated locomotion; experiment: Blockade of Amphetamine-Stimulated Locomotion (BASL) in Rats; format: in vivo, Male Sprague-Dawley rats; details: Rattus norvegicus, 0.5 h, read-out: BASL ED50, mg/kg PO (dose which would reverse amphetamine-stimulated locomotion by 50%), drug 30 minutes prior to test, amphetamine 0.5 mg/kg IP 15 minutes prior to test, 30 minute test
Description: Blockade of Amphetamine-Stimulated Locomotion (BASL) in Rats
Hyperactivity of brain dopamine (DA) neuronal systems is believed to contribute to the symptomology of schizophrenia. This hypothesis is supported, in part, by the ability of drugs such as the indirect DA agonist, amphetamine, to exacerbate schizophrenia. The stimulatory effect of amphetamine can be blocked by one of two mechanisms: a postsynaptic blockade of DA receptors, or by the action of DA autoreceptor agonists at inhibitory presynaptic DA receptor sites. Currently available antipsychotic drugs are DA receptor antagonists; however, these compounds can also cause extrapyramidal side effects apparently due to complete postsynaptic receptor blockade. Antipsychotic agents produce sedation (manifested as decreased locomotion) in normal animals, as well as in animals treated with psychomotor stimulants by reducing the access of endogenous DA to postsynaptic receptors in the brain.
Male Sprague-Dawley rats (Harlan Labs) were used for these studies. Drugs were dissolved in saline or water and administered either orally (PO) or intraperitoneally (IP) in volumes of 5 mL/kg. Saline control rats and amphetamine (0.5 mg/kg IP) control rats are included with each study (n=4-6 rats per treatment group). for the IP studies, amphetamine is given 20 minutes prior to the drug, after which a 30 minute locomotor activity test is conducted. For the oral study, drug is dosed 30 minutes prior to test, while amphetamine is given 15 minutes prior to test, which allows time for oral absorption. Locomotor activity (centimeters travelled per 30 minute test) is measured in 16"×16" open chambers. Amphetamine generally produces a 2- to 3-fold increase in locomotion over saline controls. Drug effects are reported as percent reversal of amphetamine-stimulated locomotion. Significant changes in amphetamine-stimulated locomotion, relative to amphetamine-treated controls, were determined by t-test.

pKi [1] | pKi [2] | pKi ([2]; human D2 receptor, CHO K1 membranes, 0.2 nM [3H]spiperone, 60 min, 25° C., apparent Ki from IC50 (Cheng and Prusoff)) | Compound | ED50 [3]
7.56 | < 5.23 |  | O=C1NC(CCN2CCN(c3ccc(Cl)cc3)CC2)c2ccccc21 (stereo not drawn) [3-[2-(4-p-Chlorophenyl-piperazin-1-yl)-ethyl]-2,3-dihydro-isoindol-1-one] | 
7.91 | < 5.23 |  | Cc1ccc(N2CCN(CCC3NC(=O)c4ccccc43)CC2)cc1 (stereo not drawn) [3-[2-(4-P-Tolyl-piperazin-1-yl)-ethyl]-2,3-dihydro-isoindol-1-one] | < 1 mg/kg
7.65 | < 5.23 |  | Cc1ccc(N2CCN(CCC3NC(=O)c4ccccc43)CC2)nc1 (stereo not drawn) [3-{2-[4-(5-Methyl-pyridin-2-yl)-piperazin-1-yl]-ethyl}-2,3-dihydro-isoindol-1-one] | 
7.61 |  |  | O=C1NC(CCN2CCN(c3ccccc3)CC2)c2ccccc21 (stereo not drawn) [3-[2-(4-Phenyl-piperazin-1-yl)-ethyl]-2,3-dihydro-isoindol-1-one] | 
8.03 |  | 5.92 | Cc1ccc(C2CCN(CCC3NC(=O)c4ccccc43)CC2)cc1C (stereo not drawn) [3-{2-[4-(3,4-Dimethyl-phenyl)-piperidin-1-yl]-ethyl}-2,3-dihydro-isoindol-1-one] | 
8.06 |  |  | Cc1ccc(N2CCN(CCC3NC(=O)c4ccccc43)CC2)cc1C (stereo not drawn) [3-{2-[4-(3,4-Dimethyl-phenyl)-piperazin-1-yl]-ethyl}-2,3-dihydro-isoindol-1-one] | 3 mg/kg
8.11 |  |  | Cc1ccc(N2CCN(CCC3NC(=O)c4ccccc43)CC2)cc1C (single isomer, unassigned; (-)) [(-)-3-{2-[4-(3,4-Dimethyl-phenyl)-piperazin-1-yl]-ethyl}-2,3-dihydro-isoindol-1-one] | 1.5 mg/kg
7.68 | < 5.23 |  | Cc1nc(N2CCN(CCC3NC(=O)c4ccccc43)CC2)sc1C (stereo not drawn) [3-[2-(4-(4,5-Dimethyl-thiazol-2-yl)-piperazin-1-yl)-ethyl]-2,3-dihydro-isoindol-1-one] | 
7.43 | < 5.23 |  | COc1ccc(N2CCN(CCC3c4ccccc4C(=O)N3C)CC2)cc1 (stereo not drawn) [3-[2-(4-p-Methoxyphenyl-piperazin-1-yl)-ethyl]-2,3-dihydro-2-methyl-isoindol-1-one] | 
7.38 |  |  | Cc1ccc(N2CCN(CCC3NC(=O)c4ccccc43)CC2)cc1C (single isomer, unassigned; (+)) [(+)-3-{2-[4-(3,4-Dimethyl-phenyl)-piperazin-1-yl]-ethyl}-2,3-dihydro-isoindol-1-one] | 
7.00 | 5.67 |  | O=C1NC(CCN2CCC(=C(c3ccccc3)c3ccccc3)CC2)c2ccccc21 (stereo not drawn) [3-[2-(4-(Diphenylmethylene)-piperidin-1-yl)-ethyl]-2,3-dihydro-isoindol-1-one] | 
